ChEMBL document CHEMBL1201862, “PubChem BioAssay data set” (2004)
Where a name gives a salt, the structure may show the parent alone.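 Following 48 hours of exposure in 96-well plates, responses at five concentrations were used to interpolate endpoints linearly. GI50: concentration for 50% inhibition of growth.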 Active and inactive are the calls of the source. Cut-off read from the data, not from the text of the source: active = GI50 up to about 1.1 µM and inactive = higher.

Assays:
Test in all cases: DTP human tumour cell line panel, 48 h
PC-3 = test system: PC-3
DMS-114 = test system: DMS-114
M19-MEL = test system: M19-MEL
LXFL 529 = test system: LXFL 529
RXF 631 = test system: RXF 631
SNB-78 = test system: SNB-78
786-0 = test system: 786-0
DLD-1 = test system: DLD-1
XF498 = test system: XF498

Row | Compound | GI50 (PC-3) | GI50 (M19-MEL) | GI50 (LXFL 529) | GI50 (SNB-78) | GI50 (786-0) | further results
1 | CCOC(=O)c1csc(NC(=O)CN2CCCCC2)n1 | > 100 µM (inactive) |  |  |  |  | 
2 | COC(=O)NN1C(=O)C(=P(c2ccccc2)(c2ccccc2)c2ccccc2)C(C(=O)OC)=C1C |  | > 100 µM (inactive) | > 100 µM (inactive) | > 100 µM (inactive) |  | GI50 (DMS-114): > 100 µM (inactive); GI50 (RXF 631): > 100 µM (inactive)
3 | COc1ccc(N[C@H](C[S+]([O-])c2ccc(C)cc2)C(F)(F)C(F)(F)F)cc1 (some centres not stated) |  |  |  |  | 65.8 µM (inactive) | 
4 | CCCCOc1ccc2c(c1)CC[C@@H]1[C@@H]2CC[C@]2(C)C(=O)N(CCCC)C(=O)C[C@@H]12 | 25.1 µM (inactive) |  |  |  |  | 
5 | NCCCCNOCCCN | > 100 µM (inactive) |  |  |  |  | 
6 | NCc1ccccc1-c1c2nc(c(-c3ccccc3CN)c3ccc([nH]3)c(-c3ccccc3CN)c3nc(c(-c4ccccc4CN)c4ccc1[nH]4)C=C3)C=C2 |  | 22.2 µM (inactive) | 22.1 µM (inactive) | 16.7 µM (inactive) |  | 
7 | CCCCCCCCCCCCCCCCCCN(C)CC(COP(=O)([O-])OCC[N+](C)(C)C)OC (configuration not stated) | 18.1 µM (inactive) | 4.21 µM (inactive) | 8.67 µM (inactive) | 6.32 µM (inactive) | 6.89 µM (inactive) | GI50 (DMS-114): 6.76 µM (inactive); GI50 (RXF 631): 16.2 µM (inactive); GI50 (DLD-1): 5.14 µM (inactive); GI50 (XF498): 14 µM (inactive)
8 | CC(C)(C)N(Cc1ccoc1)C(=O)/C=C\[S+]([O-])c1ccccc1 (configuration not stated) | 10.6 µM (inactive) |  |  |  | 19.8 µM (inactive) | 
9 | CSc1ccccc1P(c1ccccc1SC)c1ccccc1SC |  |  |  |  | > 100 µM (inactive) | 
10 | O=C1CC2CC3OC3[C@H]3c4cc5c(cc4C(=O)N1C23)OCO5 (some centres not stated) |  | > 100 µM (inactive) | > 100 µM (inactive) |  |  | GI50 (DMS-114): > 100 µM (inactive); GI50 (XF498): > 100 µM (inactive)
11 | CCCCc1oc2ccccc2c1C(=O)c1cc(I)c(OCCN(CC)CC)c(I)c1 [AMIODARONE HYDROCHLORIDE] |  | 4.67 µM (inactive) |  | 7.6 µM (inactive) |  | GI50 (DLD-1): 6.73 µM (inactive); GI50 (XF498): 4.69 µM (inactive)
